From ChEMBL document CHEMBL4052689, “Discovery and optimization of 3-(4-aryl/heteroarylsulfonyl)piperazin-1-yl)-6-(piperidin-1-yl)pyridazines as novel, CNS penetrant pan-muscarinic antagonists” (Bioorg Med Chem Lett, 2017)

What was measured:
Plasma [1] = assay: Protein binding in human plasma; format: ADME, cell-free
Plasma [2] = assay: Protein binding in rat plasma; format: ADME, cell-free
[3] = molecular target: T1, Muscarinic acetylcholine receptor M4 (Homo sapiens) (UniProt P08173); assay: Antagonist activity at human recombinant muscarinic M4 receptor expressed in CHO cells co-transfected with Gqi5 assessed as acetylcholine-induced response in presence of EC80 acetylcholine by calcium mobilization assay relative to untreated control; format: functional, cell-based; set-up: scale not given: the % may be the effect or the level left
T1 sequence (whole entry): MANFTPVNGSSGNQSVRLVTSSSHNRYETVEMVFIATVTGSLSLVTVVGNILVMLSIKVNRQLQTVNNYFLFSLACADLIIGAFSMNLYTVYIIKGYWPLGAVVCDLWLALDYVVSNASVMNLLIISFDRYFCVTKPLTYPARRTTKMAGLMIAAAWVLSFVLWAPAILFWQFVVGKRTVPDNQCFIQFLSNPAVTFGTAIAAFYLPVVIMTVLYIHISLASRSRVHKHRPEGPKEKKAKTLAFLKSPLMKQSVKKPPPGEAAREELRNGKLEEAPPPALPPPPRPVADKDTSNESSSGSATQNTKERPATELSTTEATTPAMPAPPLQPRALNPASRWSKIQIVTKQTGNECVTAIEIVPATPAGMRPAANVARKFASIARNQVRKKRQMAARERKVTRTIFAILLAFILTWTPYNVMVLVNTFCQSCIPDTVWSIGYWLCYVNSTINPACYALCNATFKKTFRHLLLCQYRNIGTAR

[4] = molecular target: T2, Muscarinic acetylcholine receptor M4 (Homo sapiens, UniProt P08173); assay: Antagonist activity at human recombinant muscarinic M4 receptor expressed in CHO cells co-transfected with Gqi5 in presence of EC80 acetylcholine by calcium mobilization assay; format: functional, cell-based
T2 sequence (P08173 whole entry): T1 sequence (whole entry)

[5] = molecular target: T2, Muscarinic acetylcholine receptor M4; assay: Antagonist activity at human muscarinic M4 receptor

SMILES | PPB (Plasma [1]) | PPB (Plasma [2]) | Activity [3] [%] | IC50 ([4]; read-out: IC50) [µM] | IC50 ([4]; read-out: pIC50 (converted)) [µM] | IC50 [5] [µM]
Cc1noc(C)c1S(=O)(=O)N1CCN(c2ccc(N3CCCC[C@@H]3C)nn2)CC1 | Active | Active | 6 | 0.09 |  | 
C[C@H]1CCCCN1c1ccc(N2CCN(S(=O)(=O)c3ccc4c(c3)OCO4)CC2)cn1 |  |  |  | > 10 |  | 
C[C@H]1CCCN1c1ccc(N2CCN(S(=O)(=O)c3ccc4c(c3)OCO4)CC2)nn1 |  |  | 14 | 2.73 | 2.57 | 
C[C@H]1CCCCN1c1ccc(N2CCN(S(=O)(=O)c3ccc4ncccc4c3)CC2)nn1 | Active | Active | 7 | 1.17 | 1.12 | 
COc1ccc(S(=O)(=O)N2CCN(c3ccc(N4CCCC[C@@H]4C)nn3)CC2)cc1OC | Active | Active | 46 | 2.8 | 2.63 | 
CC1(C)CCCN(c2ccc(N3CCN(S(=O)(=O)c4ccc5c(c4)OCO5)CC3)nn2)C1 |  |  | 14 | 0.47 | 0.457 | 
C[C@H]1CCCCN1c1ccc(N2CCN(S(=O)(=O)c3ccccc3)CC2)nn1 | Active | Active | 8 | 2.57 |  | 
O=S(=O)(c1ccccc1Cl)N1CCN(c2ccc(N3CCCCC3)nn2)CC1 |  |  | 12 | 5.58 | 5.37 | 
C[C@H]1COCCN1c1ccc(N2CCN(S(=O)(=O)c3ccc4c(c3)OCO4)CC2)nn1 |  |  | 63 | > 10 |  | 
Cc1noc(C)c1S(=O)(=O)N1CCN(c2ccc(N3CCOC[C@@H]3C)nn2)CC1 |  |  | 66 | > 10 |  | 
O=S(=O)(c1ccccc1Cl)N1CCN(c2ccc(N3CCCCCC3)nn2)CC1 |  |  | 6 | 1.27 |  | 
C[C@H]1CCCCN1c1ccc(N2CCN(S(=O)(=O)c3cccc(Cl)c3)CC2)nn1 | Active | Active | 22 | 0.76 | 0.708 | 
C[C@H]1COCCN1c1ccc(N2CCN(S(=O)(=O)c3ccccc3Cl)CC2)nn1 |  |  | 56 | > 10 |  | 
O=S(=O)(c1ccc2c(c1)OCO2)N1CCN(c2ccc(N3CCCCC3)nn2)CC1 |  |  | 55 | 0.73 | 0.661 | 
C[C@H]1CCCCN1c1ccc(N2CCN(S(=O)(=O)c3ccc4c(c3)OCO4)CC2)nn1 | Active | Active | 9 | 0.2 |  | 
C[C@H]1CCCCN1c1ccc(N2CCN(S(=O)(=O)c3ccccc3C(F)(F)F)CC2)nn1 | Active | Active | 4 | 0.52 |  | 

SMILES | PPB (Plasma [1]) | PPB (Plasma [2]) | Activity [3] [%] | IC50 ([4]; read-out: IC50) [µM] | IC50 ([4]; read-out: pIC50 (converted)) [µM] | IC50 [5] [µM]
Cc1noc(C)c1S(=O)(=O)N1CCN(c2ccc(N3CCCCCC3)nn2)CC1 |  |  | 8 | 0.43 | 0.407 | 
C[C@H]1CCCCN1c1ccc(N2CCN(S(=O)(=O)c3ccc4c(c3)OCO4)CC2)cc1 |  |  |  | 1.33 |  | 
CC1CCCCN1c1ccc(N2CCN(S(=O)(=O)c3ccccc3Cl)CC2)nn1 (racemic) |  |  | 9.2 | 0.53 |  | 1
C[C@H]1CCCN1c1ccc(N2CCN(S(=O)(=O)c3ccccc3Cl)CC2)nn1 |  |  | 9 | 2.9 |  | 
C[C@H]1CCCCN1c1ccc(N2CCN(S(=O)(=O)c3nccn3C)CC2)nn1 | Active | Active | 8 | 1.6 |  | 
C[C@@H]1CCCCN1c1ccc(N2CCN(S(=O)(=O)c3ccccc3Cl)CC2)nn1 |  |  | 12 | 6.08 | 5.75 | 
O=S(=O)(c1ccc2c(c1)OCO2)N1CCN(c2ccc(N3CCCCCC3)nn2)CC1 |  |  | 20 | 0.29 |  | 
CC1(C)CCCN(c2ccc(N3CCN(S(=O)(=O)c4ccccc4Cl)CC3)nn2)C1 |  |  | 5 | 0.94 |  | 
C[C@H]1CCCCN1c1ccc(N2CCN(S(=O)(=O)c3ccc4c(c3)OCO4)CC2)nc1 |  |  |  | 1.35 |  | 
Cc1noc(C)c1S(=O)(=O)N1CCN(c2ccc(N3CCC[C@@H]3C)nn2)CC1 |  |  | 10 | 3.31 |  | 
C[C@H]1CCCCN1c1cnc(N2CCN(S(=O)(=O)c3ccc4c(c3)OCO4)CC2)cn1 |  |  |  | > 10 |  | 
C[C@H]1CCCCN1c1ccc(N2CCN(S(=O)(=O)C3CCCCC3)CC2)nn1 | Active | Active | 51 | 4.02 |  | 
COc1ccccc1S(=O)(=O)N1CCN(c2ccc(N3CCCC[C@@H]3C)nn2)CC1 | Active | Active | 11 | 2.38 |  | 
O=C1CCCCN1c1ccc(N2CCN(S(=O)(=O)c3ccccc3Cl)CC2)nn1 |  |  | 51 | > 10 |  | 
C[C@H]1CCCCN1c1ccc(N2CCN(S(=O)(=O)c3ccc(Cl)cc3)CC2)nn1 | Active | Active | 30 | 2.34 | 2.29 | 
